Data from patent US6005007A, “Retinoids, methods for their production and use” (priority 1997, dated 1999).
Where two headings read alike, the source gives them in different places.

Columns and labels:
ME 180 = assay: Incorporation of 3H-thymidine, ME 180; assay type: cell-based; details: Homo sapiens
AML-193 = assay: Incorporation of 3H-thymidine, AML-193; details: Homo sapiens, read-out: TdR IC50 AML-193 (nM)
RARα [1] = molecular target: T1, RARα (Homo sapiens, UniProt P10276); assay: Receptor binding, RARα; details: tritiated retinoid competition
T1 sequence (P10276 1-462): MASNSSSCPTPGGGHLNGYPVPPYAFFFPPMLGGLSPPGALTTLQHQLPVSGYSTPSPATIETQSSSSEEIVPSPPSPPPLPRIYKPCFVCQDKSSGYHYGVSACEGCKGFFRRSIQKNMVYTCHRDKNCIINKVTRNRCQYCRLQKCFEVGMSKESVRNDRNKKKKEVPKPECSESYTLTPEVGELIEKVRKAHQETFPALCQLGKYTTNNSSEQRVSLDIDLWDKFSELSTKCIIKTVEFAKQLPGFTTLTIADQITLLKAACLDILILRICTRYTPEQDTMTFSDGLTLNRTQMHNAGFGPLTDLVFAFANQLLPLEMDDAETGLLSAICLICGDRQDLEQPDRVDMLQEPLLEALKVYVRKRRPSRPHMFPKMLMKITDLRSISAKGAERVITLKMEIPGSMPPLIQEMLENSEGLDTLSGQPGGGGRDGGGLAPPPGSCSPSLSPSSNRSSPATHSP

RARβ [2] = molecular target: T2, RARβ (Homo sapiens, UniProt P10826); assay: Receptor binding, RARβ; details: tritiated retinoid competition
T2 sequence (P10826 1-448 isoform P10826-2): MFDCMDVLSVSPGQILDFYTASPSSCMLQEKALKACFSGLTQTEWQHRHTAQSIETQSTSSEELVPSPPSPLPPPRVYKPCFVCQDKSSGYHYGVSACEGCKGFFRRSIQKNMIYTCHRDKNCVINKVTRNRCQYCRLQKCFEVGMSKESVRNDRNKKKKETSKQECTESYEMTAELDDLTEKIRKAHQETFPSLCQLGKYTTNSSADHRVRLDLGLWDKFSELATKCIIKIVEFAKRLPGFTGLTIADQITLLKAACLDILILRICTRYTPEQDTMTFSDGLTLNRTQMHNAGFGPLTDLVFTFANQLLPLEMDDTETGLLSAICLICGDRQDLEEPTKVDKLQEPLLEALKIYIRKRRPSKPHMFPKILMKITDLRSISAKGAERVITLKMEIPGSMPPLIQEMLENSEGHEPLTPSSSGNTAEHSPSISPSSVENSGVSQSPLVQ

RARγ [3] = molecular target: T3, RARγ (Homo sapiens, UniProt P13631); assay: Receptor binding, RARγ; details: tritiated retinoid competition
T3 sequence (P13631 1-454): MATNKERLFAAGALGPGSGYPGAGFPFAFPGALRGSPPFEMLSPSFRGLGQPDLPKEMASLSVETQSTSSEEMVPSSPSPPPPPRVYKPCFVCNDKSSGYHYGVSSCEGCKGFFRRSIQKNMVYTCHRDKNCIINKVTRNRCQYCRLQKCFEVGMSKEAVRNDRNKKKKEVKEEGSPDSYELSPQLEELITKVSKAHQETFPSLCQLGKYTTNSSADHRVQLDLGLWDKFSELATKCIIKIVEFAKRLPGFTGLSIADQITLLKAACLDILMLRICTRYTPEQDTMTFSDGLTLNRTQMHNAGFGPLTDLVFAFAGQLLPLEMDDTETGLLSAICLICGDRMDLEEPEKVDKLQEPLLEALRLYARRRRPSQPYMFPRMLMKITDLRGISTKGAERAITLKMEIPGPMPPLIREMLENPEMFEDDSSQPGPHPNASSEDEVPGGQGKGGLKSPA

RXRγ = molecular target: T4, RXRγ (Mus musculus, UniProt P28705); assay: Receptor binding, RXRγ; details: tritiated retinoid competition
T4 construct: expressed in transfected cells; host or cells: CV-1 (African green monkey kidney fibroblasts)
T4 sequence (P28705 1-463): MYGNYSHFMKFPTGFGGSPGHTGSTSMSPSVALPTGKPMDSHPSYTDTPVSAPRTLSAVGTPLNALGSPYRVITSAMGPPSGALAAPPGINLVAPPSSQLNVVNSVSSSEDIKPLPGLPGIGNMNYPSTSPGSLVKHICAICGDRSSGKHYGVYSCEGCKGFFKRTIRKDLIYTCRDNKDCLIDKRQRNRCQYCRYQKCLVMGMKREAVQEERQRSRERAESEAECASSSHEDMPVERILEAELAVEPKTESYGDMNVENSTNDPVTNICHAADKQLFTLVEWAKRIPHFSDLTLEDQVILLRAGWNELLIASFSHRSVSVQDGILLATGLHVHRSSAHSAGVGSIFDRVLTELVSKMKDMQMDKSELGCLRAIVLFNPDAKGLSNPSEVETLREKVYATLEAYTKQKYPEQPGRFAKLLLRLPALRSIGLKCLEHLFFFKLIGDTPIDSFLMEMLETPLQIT

RARα [4] = molecular target: T1, RARα; assay: Co-transfection assay, RARα agonist activity; assay type: cell-based; parameters: expressed in transfected cells; host or cells: CV-1 (African green monkey kidney fibroblasts); details: CV-1 cells, luciferase reporter, read-out: RARα Pot
RARβ [5] = molecular target: T2, RARβ; assay: Co-transfection assay, RARβ agonist activity; assay type: cell-based; parameters: expressed in transfected cells; host or cells: CV-1 (African green monkey kidney fibroblasts); details: CV-1 cells, luciferase reporter, read-out: RARβ Pot
RARγ [6] = molecular target: T3, RARγ; assay: Co-transfection assay, RARγ agonist activity; assay type: cell-based; parameters: expressed in transfected cells; host or cells: CV-1 (African green monkey kidney fibroblasts); details: CV-1 cells, luciferase reporter, read-out: RARγ Pot
RPMI 8226 = assay: Incorporation of 3H-thymidine, RPMI 8226; assay type: cell-based; details: Homo sapiens, 96 hours incubation, then 6 hours 3H-thymidine, read-out: TdR IC50 RPMI 8226

Row | Structure (SMILES) | IC50 (AML-193) [nM] | Kd (RARα [1]) [µM] | Kd (RARβ [2]) [µM] | Kd (RARγ [3]) [µM] | further results
1 | CC1=C(/C=C/C(C)=C\C=C\C(C)=C\C(=O)O)C(C)(C)CCC1 [Compound 9-cis, 9-cis retinoic acid] | 113 | – | – | – | IC50 (ME 180; ME-180, read-out: TdR IC50 ME 180 (nM)): 180 nM
2 | CC(/C=C/CC1(c2cc3c(cc2C)C(C)(C)CCC3(C)C)CC1)=C\C(=O)O [Compound 102, (2E, 4E)-6-[(3,5,5,8,8-Pentamethyl-5,6,7,8-tetrahydronaphthalen-2-yl)cyclopropan-1-yl]-3-methyl hexadienoic acid] | – | > 5 | > 5 | > 5 | Kd (RXRγ): 153 nM; EC50 (RARα [4]): > 10 µM; EC50 (RARβ [5]): > 10 µM; EC50 (RARγ [6]): > 10 µM
3 | CC(/C=C/CC1(c2cc(C(C)(C)C)cc(C(C)(C)C)c2)CC1)=C\C(=O)O [Compound 105, (2E, 4E)-6-[(3,5-di-t-butylphenyl)cyclopropan-1-yl]-3-methyl hexadienoic acid] | – | > 5 | > 5 | > 5 | –
4 | C/C(=C\c1ccc(C(=O)O)cc1)c1ccc2c(c1)C(C)(C)CCC2(C)C [TTNPB] | 0.1 | – | – | – | IC50 (RPMI 8226): 0.2 nM; IC50 (ME 180; ME-180, 96 hours incubation, then 6 hours 3H-thymidine, read-out: TdR IC50 ME 180): 0.4 nM
